Test results as given in article PMC6563844, “Identification and in vivo Efficacy Assessment of Approved Orally Bioavailable Human Host Protein-Targeting Drugs With Broad Anti-influenza A Activity” (Frontiers in Immunology, 2019).
Like-named read-outs stand apart in the source and are kept apart here.

Columns and labels:
[1] = tested on: H1N1 A/Puerto Rico/8/34 (PR8)
PR8 [2] = tested on: PR8; design: species or system C57BL/6 mice; settings: mouse, in vivo, po
[3] = tested on: H1N1pdm09 (A/Mexico/InDRE4487/2009); design: species or system ferrets (mustela putorius furo); settings: in vivo
[4] = tested on: H1N1 and H3N2 influenza A viruses (PR8, H1N1pdm09, H3N2); assay: microbe, parasite or virus in culture; assay type: cell-based
PR8 [5] = assay: microbe, parasite or virus in culture; assay type: cell-based, influenza A virus
[6] = tested on: H3N2 (A/Victoria/36/2011); assay: microbe, parasite or virus in culture; assay type: cell-based, influenza A virus
in vitro = settings: dog
Experimental: (§1) The MTT assay was performed according to the manufacturer's protocol (Thermo Fisher Vybrant MTT Cell Proliferation Assay Kit). Briefly, MDCK cells grown in a 96-well-plate were treated with the respective drugs at 5-fold descending concentrations starting at 500 mM or left untreated. After 24 h, medium was replaced by PBS containing 1 mM MTT. After incubation for 4 h at 37°C, supernatants were removed, mixed with DMSO and further incubated for 10 min at 37°C before absorption was measured at 562 nm using a PHOmo Microplate reader. To calculate the relative cytotoxicity, the absorbance of untreated cells was set to 1. The 50% cytotoxic concentration (CC50) was calculated using GraphPad 6, and the selectivity index (SI) represents the ratio of CC50 to EC50.

[7] = tested on: pH1N1 (H1N1pdm09 A/Mexico/InDRE4487/2009); assay: microbe, parasite or virus in culture; assay type: cell-based, influenza A virus
[8] = tested on: influenza strains A/Puerto Rico/8/34 (PR8), A/Mexico/InDRE4487/2009 (H1N1pdm09), A/Victoria/36/2011 (H3N2); assay type: cell-based, influenza A virus
MDCK cells = assay: MTT assay (cytotoxicity); settings: MDCK cells, 24 h, MTT
Experimental: as §1

MTT assay (cytotoxicity) = settings: dog
Experimental: as §1

[9] = read-out: EC50 (50% effective dose)

In the case of `CC(O)(P(=O)(O)O)P(=O)(O)O` [Etidronic Acid], the Inhibitory effect [1] is reported as “No inhibition” and the “antiviral activity in initial screen” value [1] is reported as “no antiviral activity”.
With `CCOC(=O)C1=C[C@@H](OC(CC)CC)[C@H](NC(C)=O)[C@@H](N)C1` [Oseltamivir phosphate, oseltamivir phosphate] the “reduction of lung titers” value (PR8 [2]) was 28 fold, the clinical score [3] was “minimal clinical score peaking on day 3” and the “reduction in nasal wash titers” value ([3]; po) was 10 fold.
For `CN1CCC(=C2c3ccccc3CC(=O)c3sccc32)CC1` [Ketotifen], the EC50 [4, 9] was 5 to 50 µM, the “Inhibitory effect (fold inhibition)” value [1] was >10-fold inhibition and the “antiviral activity in initial screen” value [1] was “able to inhibit infection at doses above 50 μM without causing toxicity”. The EC50 (PR8 [5]; Influenza A virus, PR8, MDCK) was 5.9 ± 0.2 µM, the EC50 ([6]; Influenza A virus, H3N2, MDCK) was 48.5 ± 2 µM and the CC50 at 24 h (in vitro) was 291 ± 14.8 µM. The EC50 ([7]; Influenza A virus, MDCK, pH1N1) was 33.7 ± 1.3 µM and the “reduction of viral titers” value [8] was 100 fold.
With `CCCCC1=NC2(CCCC2)C(=O)N1Cc1ccc(-c2ccccc2-c2nnn[nH]2)cc1` [Irbesartan] the Inhibitory effect [1] was “toxic”, the antiviral activity [1] was “no antiviral activity” and the “toxicity in the screen” value [1] was “pronounced toxicity”.
In the case of `Nc1ncnc2c1ncn2[C@@H]1O[C@H](COP(=O)(O)OP(=O)(O)OP(=O)(O)O)[C@@H](O)[C@H]1O` [Adenosine triphosphate], the Inhibitory effect [1] is reported as “No inhibition” and the “antiviral activity in initial screen” value [1] is reported as “no antiviral activity”.
With `O=[N+]([O-])[O-].O=[N+]([O-])[O-].O=[N+]([O-])[O-].[Ga+3]` [Gallium nitrate] the “effect on lung viral titers” value (PR8 [2]) was “no significant effect”, the “Inhibitory effect (fold inhibition)” value [1] was >10-fold inhibition and the “antiviral activity in initial screen” value [1] was “able to inhibit infection at doses above 50 μM without causing toxicity”. The EC50 (PR8 [5]; read-out: EC50) was 54.8 ± 2.2 µM, the CC50 (MDCK cells) was 716 ± 116 µM and the EC50 ([6]; read-out: EC50) was 5.7 ± 0.9 µM. The EC50 ([7]; pH1N1) was 55.3 ± 2.9 µM and the “reduction of viral titers” value [8] was “around 10 fold”.
In the case of `O=C1CCC(N2C(=O)c3ccccc3C2=O)C(=O)N1` (centres unmarked) [Thalidomide], the Inhibitory effect [1] is reported as “No inhibition” and the “antiviral activity in initial screen” value [1] is reported as “no antiviral activity”.
With `O=C1CC[C@@]2(O)[C@H]3Cc4ccc(O)c5c4[C@@]2(CCN3CC2CC2)[C@H]1O5` [Naltrexone] the EC50 [4] was 5 to 50 µM, the “effect on lung viral titers” value (PR8 [2]) was “no significant effect” and the “Inhibitory effect (fold inhibition)” value [1] was >10-fold inhibition. The “antiviral activity in initial screen” value [1] was “able to inhibit infection at doses above 50 μM without causing toxicity”, the EC50 (PR8 [5]; Influenza A virus, PR8, MDCK) was 4.7 ± 0.2 µM and the CC50 at 24 h (MTT assay (cytotoxicity)) was 5230 ± 227 µM. The inhibition efficiency [6] was “less efficient”, the EC50 ([6]; Influenza A virus, H3N2, MDCK) was > 500 µM and the EC50 ([7]; Influenza A virus, MDCK, pH1N1) was 48 ± 3.2 µM. For the same compound, the “reduction of viral titers” value [8] was 100 fold.
In the case of `N[C@@H](CCC(=O)O)C(=O)O` [L-Glutamic Acid], the Inhibitory effect [1] is reported as “No inhibition” and the “antiviral activity in initial screen” value [1] is reported as “no antiviral activity”.
For `CCC(CC)O[C@@H]1C=C(C(=O)O)C[C@H](N)[C@H]1NC(C)=O` [oseltamivir carboxylate], the EC50 (PR8 [5]; read-out: EC50) was 0.005 µM, the EC50 [7] was ~0.2 µM and the “concentration completely inhibiting replication” value [8] was “higher than 5 μM”.
In the case of `CC(=O)N[C@@H]1[C@@H](O)[C@H](O)[C@@H](CO)O[C@@H]1O` [N-Acetyl-D-Glucosamine], the Inhibitory effect [1] is reported as “No inhibition” and the “antiviral activity in initial screen” value [1] is reported as “no antiviral activity”.
With `CN(C)/N=N/c1[nH]cnc1C(N)=O` [Dacarbazine] the Inhibitory effect [1] was “no inhibition” and the “antiviral activity in initial screen” value [1] was “no antiviral activity”.
Work on `CCOC(=O)C1=C[C@@H](OC(CC)CC)[C@H](NC(C)=O)[C@@H](N)C1` [Oseltamivir] yielded an EC50 (PR8 [5]; Influenza A virus, PR8, MDCK) of 0.005 ± 0.0004 µM, an EC50 ([6]; Influenza A virus, H3N2, MDCK) of 0.05 ± 0.003 µM and a CC50 at 24 h (in vitro) of 470 ± 12.3 µM. For the same compound, the EC50 ([7]; Influenza A virus, MDCK, pH1N1) was 0.2 ± 0.05 µM.
For `NCCCC(O)(P(=O)(O)O)P(=O)(O)O` [Alendronate], the Inhibitory effect [1] was “toxic” and the antiviral activity [1] was “no antiviral activity”.
With `N=C(N)NC(=O)c1nc(Cl)c(N)nc1N` [Amiloride] the Inhibitory effect [1] was “No inhibition” and the “antiviral activity in initial screen” value [1] was “no antiviral activity”.
For `CC(C)NCC(O)c1ccc(O)c(O)c1` (centres unmarked) [Isoproterenol], the Inhibitory effect [1] was “toxic”, the antiviral activity [1] was “no antiviral activity” and the “toxicity in the screen” value [1] was “pronounced toxicity”.
For `COc1ccc2c(c1)[C@]13CCCC[C@@H]1[C@H](C2)N(C)CC3` [Dextromethorphan], the EC50 [4, 9] was 5 to 50 µM, the “effect on lung viral titers” value (PR8 [2]) was “more variable but significant reduction” and the “Inhibitory effect (fold inhibition)” value [1] was >10-fold inhibition. For the same compound, the “antiviral activity in initial screen” value [1] was “able to inhibit infection at doses above 50 μM without causing toxicity”, the EC50 (PR8 [5]; Influenza A virus, PR8, MDCK) was 48.7 ± 2.3 µM and the CC50 at 24 h (MTT assay (cytotoxicity)) was 3546 ± 11.1 µM. For the same compound, the EC50 ([6]; Influenza A virus, H3N2, MDCK) was 51.7 ± 4.2 µM, the clinical score [3] was “significantly lower peak score” and the weight loss [3] was < 10%. For the same compound, the body weight effect ([3]; po) was “slightly increase the weight loss”, the “effect on nasal wash titers” value ([3]; po) was “no effect” and the EC50 ([7]; Influenza A virus, MDCK, pH1N1) was 50.8 ± 3.3 µM. For the same compound, the “reduction of viral titers” value [8] was “around 1,000 fold”.
In the case of `CC[C@]1(O)C[C@@H]2CN(CCc3c([nH]c4ccccc34)[C@@](C(=O)OC)(c3cc4c(cc3OC)N(C)[C@H]3[C@@](O)(C(=O)OC)[C@H](OC(C)=O)[C@]5(CC)C=CCN6CC[C@]43[C@@H]65)C2)C1` [Vinblastine], the Inhibitory effect [1] is reported as “toxic”, the antiviral activity [1] is reported as “no antiviral activity” and the “toxicity in the screen” value [1] is reported as “pronounced toxicity”.
